# According to the supplement of paper PMC13207355:
# Experiments:
# Settings in all cases: exposure time: 72 h
# E13 [1] = patient-derived glioblastoma stem cells of classical subtype; assay: surviving fraction (nuclei count normalised to DMSO); higher = more cells surviving (less toxic)
# E21 [2] = patient-derived glioblastoma stem cells of mesenchymal subtype; assay: as above
# E28 [3] = patient-derived glioblastoma stem cells of classical subtype; assay: as above
# E31 [4] = patient-derived glioblastoma stem cells of proneural subtype; assay: as above
# E34 [5] = patient-derived glioblastoma stem cells of proneural subtype; assay: as above
# E57 [6] = patient-derived glioblastoma stem cells of mesenchymal subtype; assay: as above
# FT3469 [7] = normal neural stem cell line; assay: as above
# E13 [8] = assay: phenotypic distance (Euclidean, principal components) from DMSO controls (arbitrary units); higher = stronger morphological change
# E21 [9] = assay: as above
# E28 [10] = assay: as above
# E31 [11] = assay: as above
# E34 [12] = assay: as above
# E57 [13] = assay: as above
# FT3469 [14] = assay: as above
# 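Wherever phenotypic distance (Euclidean, principal components) from DMSO controls is given: cell Painting imaging in 384-well plates, CellProfiler features reduced to at least 20 principal components, Euclidean distance versus same-plate DMSO vehicle wells (0.1% v/v), median over six images per well.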
# 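Wherever surviving fraction (nuclei count normalised to DMSO) is given: nuclei counted by high-content imaging of Hoechst-stained cells in laminin-coated 384-well plates, relative to 0.1% DMSO vehicle wells, with staurosporine as cell-death control.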
smiles,measurement,setting,value
CC(=O)O[C@@]12CO[C@@H]1C[C@H](O)[C@@]1(C)C(=O)[C@H](O)C3=C(C)[C@@H](OC(=O)[C@H](O)[C@@H](NC(=O)OC(C)(C)C)c4ccccc4)C[C@@](O)([C@@H](OC(=O)c4ccccc4)[C@H]21)C3(C)C [Docetaxel],surviving fraction,E13 [1]; 4.1 nM,0.244
same,surviving fraction,E13 [1]; 12.3 nM,0.245
same,surviving fraction,E13 [1]; 37 nM,0.23
same,surviving fraction,E13 [1]; 111.1 nM,0.267
same,surviving fraction,E13 [1]; 333.3 nM,0.26
same,surviving fraction,E13 [1]; 1000 nM,0.245
same,surviving fraction,E13 [1]; 3000 nM,0.233
same,surviving fraction,E21 [2]; 4.1 nM,0.256
same,surviving fraction,E21 [2]; 12.3 nM,0.291
same,surviving fraction,E21 [2]; 37 nM,0.273
same,surviving fraction,E21 [2]; 111.1 nM,0.267
same,surviving fraction,E21 [2]; 333.3 nM,0.324
same,surviving fraction,E21 [2]; 1000 nM,0.366
same,surviving fraction,E21 [2]; 3000 nM,0.306
same,surviving fraction,E28 [3]; 4.1 nM,0.337
same,surviving fraction,E28 [3]; 12.3 nM,0.342
same,surviving fraction,E28 [3]; 37 nM,0.315
same,surviving fraction,E28 [3]; 111.1 nM,0.374
same,surviving fraction,E28 [3]; 333.3 nM,0.359
same,surviving fraction,E28 [3]; 1000 nM,0.377
same,surviving fraction,E28 [3]; 3000 nM,0.43
same,surviving fraction,E31 [4]; 4.1 nM,0.175
same,surviving fraction,E31 [4]; 12.3 nM,0.112
same,surviving fraction,E31 [4]; 37 nM,0.146
same,surviving fraction,E31 [4]; 111.1 nM,0.157
same,surviving fraction,E31 [4]; 333.3 nM,0.134
same,surviving fraction,E31 [4]; 1000 nM,0.164
same,surviving fraction,E31 [4]; 3000 nM,0.2
same,surviving fraction,E34 [5]; 4.1 nM,0.43
same,surviving fraction,E34 [5]; 12.3 nM,0.452
same,surviving fraction,E34 [5]; 37 nM,0.497
same,surviving fraction,E34 [5]; 111.1 nM,0.38
same,surviving fraction,E34 [5]; 333.3 nM,0.438
same,surviving fraction,E34 [5]; 1000 nM,0.423
same,surviving fraction,E34 [5]; 3000 nM,0.551
same,surviving fraction,E57 [6]; 4.1 nM,0.0834
same,surviving fraction,E57 [6]; 12.3 nM,0.0809
same,surviving fraction,E57 [6]; 37 nM,0.078
same,surviving fraction,E57 [6]; 111.1 nM,0.0677
same,surviving fraction,E57 [6]; 333.3 nM,0.0873
same,surviving fraction,E57 [6]; 1000 nM,0.0902
same,surviving fraction,E57 [6]; 3000 nM,0.109
same,surviving fraction,FT3469 [7]; 4.1 nM,0.529
same,surviving fraction,FT3469 [7]; 12.3 nM,0.614
same,surviving fraction,FT3469 [7]; 37 nM,0.452
same,surviving fraction,FT3469 [7]; 111.1 nM,0.513
same,surviving fraction,FT3469 [7]; 333.3 nM,0.572
same,surviving fraction,FT3469 [7]; 1000 nM,0.497
same,surviving fraction,FT3469 [7]; 3000 nM,0.556
same,phenotypic distance,E13 [8]; 4.1 nM,5.48
same,phenotypic distance,E13 [8]; 12.3 nM,5.06
same,phenotypic distance,E13 [8]; 37 nM,5.13
same,phenotypic distance,E13 [8]; 111.1 nM,5.06
same,phenotypic distance,E13 [8]; 333.3 nM,5.38
same,phenotypic distance,E13 [8]; 1000 nM,5.66
same,phenotypic distance,E13 [8]; 3000 nM,5.29
same,phenotypic distance,E21 [9]; 4.1 nM,5.81
same,phenotypic distance,E21 [9]; 12.3 nM,6.42
same,phenotypic distance,E21 [9]; 37 nM,6.23
same,phenotypic distance,E21 [9]; 111.1 nM,6.28
same,phenotypic distance,E21 [9]; 333.3 nM,6.05
same,phenotypic distance,E21 [9]; 1000 nM,6.55
same,phenotypic distance,E21 [9]; 3000 nM,6.95
same,phenotypic distance,E28 [10]; 4.1 nM,3.2
same,phenotypic distance,E28 [10]; 12.3 nM,3.04
same,phenotypic distance,E28 [10]; 37 nM,3.71
same,phenotypic distance,E28 [10]; 111.1 nM,4
same,phenotypic distance,E28 [10]; 333.3 nM,4.1
same,phenotypic distance,E28 [10]; 1000 nM,3.51
same,phenotypic distance,E28 [10]; 3000 nM,3.95
same,phenotypic distance,E31 [11]; 4.1 nM,3.61
same,phenotypic distance,E31 [11]; 12.3 nM,4.17
same,phenotypic distance,E31 [11]; 37 nM,4.04
same,phenotypic distance,E31 [11]; 111.1 nM,3.51
same,phenotypic distance,E31 [11]; 333.3 nM,4.45
same,phenotypic distance,E31 [11]; 1000 nM,4.14
same,phenotypic distance,E31 [11]; 3000 nM,3.26
same,phenotypic distance,E34 [12]; 4.1 nM,4.14
same,phenotypic distance,E34 [12]; 12.3 nM,3.76
same,phenotypic distance,E34 [12]; 37 nM,3.17
same,phenotypic distance,E34 [12]; 111.1 nM,3.96
same,phenotypic distance,E34 [12]; 333.3 nM,3.99
same,phenotypic distance,E34 [12]; 1000 nM,3.89
same,phenotypic distance,E34 [12]; 3000 nM,3.75
same,phenotypic distance,E57 [13]; 4.1 nM,5.76
same,phenotypic distance,E57 [13]; 12.3 nM,5.68
same,phenotypic distance,E57 [13]; 37 nM,5.22
same,phenotypic distance,E57 [13]; 111.1 nM,5.42
same,phenotypic distance,E57 [13]; 333.3 nM,5.4
same,phenotypic distance,E57 [13]; 1000 nM,5.4
same,phenotypic distance,E57 [13]; 3000 nM,5.26
same,phenotypic distance,FT3469 [14]; 4.1 nM,4.07
same,phenotypic distance,FT3469 [14]; 12.3 nM,4.02
same,phenotypic distance,FT3469 [14]; 37 nM,3.93
same,phenotypic distance,FT3469 [14]; 111.1 nM,4.46
same,phenotypic distance,FT3469 [14]; 333.3 nM,4.18
same,phenotypic distance,FT3469 [14]; 1000 nM,4.11
same,phenotypic distance,FT3469 [14]; 3000 nM,4.57
C#C[C@]1(O)CC[C@H]2[C@@H]3CCC4=CCCC[C@@H]4[C@H]3CC[C@@]21C [Lynestrenol],surviving fraction,E13 [1]; 4.1 nM,0.994
same,surviving fraction,E13 [1]; 12.3 nM,0.901
same,surviving fraction,E13 [1]; 37 nM,1.03
same,surviving fraction,E13 [1]; 111.1 nM,1.05
same,surviving fraction,E13 [1]; 333.3 nM,1.03
same,surviving fraction,E13 [1]; 1000 nM,1.04
same,surviving fraction,E13 [1]; 3000 nM,0.88
same,surviving fraction,E21 [2]; 4.1 nM,1.03
same,surviving fraction,E21 [2]; 12.3 nM,0.998
same,surviving fraction,E21 [2]; 37 nM,1.01
same,surviving fraction,E21 [2]; 111.1 nM,1.08
same,surviving fraction,E21 [2]; 333.3 nM,1.07
same,surviving fraction,E21 [2]; 1000 nM,0.975
same,surviving fraction,E21 [2]; 3000 nM,1.08
same,surviving fraction,E28 [3]; 4.1 nM,1.06
same,surviving fraction,E28 [3]; 12.3 nM,1.05
same,surviving fraction,E28 [3]; 37 nM,0.924
same,surviving fraction,E28 [3]; 111.1 nM,1.04
same,surviving fraction,E28 [3]; 333.3 nM,1.09
same,surviving fraction,E28 [3]; 1000 nM,1.16
same,surviving fraction,E28 [3]; 3000 nM,1.16
same,surviving fraction,E31 [4]; 4.1 nM,0.991
same,surviving fraction,E31 [4]; 12.3 nM,1.12
same,surviving fraction,E31 [4]; 37 nM,0.813
same,surviving fraction,E31 [4]; 111.1 nM,1.26
same,surviving fraction,E31 [4]; 333.3 nM,0.895
same,surviving fraction,E31 [4]; 1000 nM,1.07
same,surviving fraction,E31 [4]; 3000 nM,1.09
same,surviving fraction,E34 [5]; 4.1 nM,0.966
same,surviving fraction,E34 [5]; 12.3 nM,0.988
same,surviving fraction,E34 [5]; 37 nM,0.917
same,surviving fraction,E34 [5]; 111.1 nM,1.24
same,surviving fraction,E34 [5]; 333.3 nM,1.03
same,surviving fraction,E34 [5]; 1000 nM,0.979
same,surviving fraction,E34 [5]; 3000 nM,0.946
same,surviving fraction,E57 [6]; 4.1 nM,1.2
same,surviving fraction,E57 [6]; 12.3 nM,1.03
same,surviving fraction,E57 [6]; 37 nM,1.04
same,surviving fraction,E57 [6]; 111.1 nM,1.06
same,surviving fraction,E57 [6]; 333.3 nM,1.08
same,surviving fraction,E57 [6]; 1000 nM,1.17
same,surviving fraction,E57 [6]; 3000 nM,1.08
same,surviving fraction,FT3469 [7]; 4.1 nM,1.1
same,surviving fraction,FT3469 [7]; 12.3 nM,1.19
same,surviving fraction,FT3469 [7]; 37 nM,0.984
same,surviving fraction,FT3469 [7]; 111.1 nM,1.26
same,surviving fraction,FT3469 [7]; 333.3 nM,1.07
same,surviving fraction,FT3469 [7]; 1000 nM,1.13
same,surviving fraction,FT3469 [7]; 3000 nM,1.06
same,phenotypic distance,E13 [8]; 4.1 nM,0.399
same,phenotypic distance,E13 [8]; 12.3 nM,0.621
same,phenotypic distance,E13 [8]; 37 nM,0.422
same,phenotypic distance,E13 [8]; 111.1 nM,0.821
same,phenotypic distance,E13 [8]; 333.3 nM,0.697
same,phenotypic distance,E13 [8]; 1000 nM,0.59
same,phenotypic distance,E13 [8]; 3000 nM,1.03
same,phenotypic distance,E21 [9]; 4.1 nM,0.397
same,phenotypic distance,E21 [9]; 12.3 nM,0.584
same,phenotypic distance,E21 [9]; 37 nM,0.589
same,phenotypic distance,E21 [9]; 111.1 nM,0.676
same,phenotypic distance,E21 [9]; 333.3 nM,0.662
same,phenotypic distance,E21 [9]; 1000 nM,0.692
same,phenotypic distance,E21 [9]; 3000 nM,1.35
same,phenotypic distance,E28 [10]; 4.1 nM,0.488
same,phenotypic distance,E28 [10]; 12.3 nM,0.735
same,phenotypic distance,E28 [10]; 37 nM,0.493
same,phenotypic distance,E28 [10]; 111.1 nM,0.306
same,phenotypic distance,E28 [10]; 333.3 nM,0.694
same,phenotypic distance,E28 [10]; 1000 nM,0.828
same,phenotypic distance,E28 [10]; 3000 nM,0.566
same,phenotypic distance,E31 [11]; 4.1 nM,0.539
same,phenotypic distance,E31 [11]; 12.3 nM,0.803
same,phenotypic distance,E31 [11]; 37 nM,0.671
same,phenotypic distance,E31 [11]; 111.1 nM,0.989
same,phenotypic distance,E31 [11]; 333.3 nM,0.806
same,phenotypic distance,E31 [11]; 1000 nM,0.394
same,phenotypic distance,E31 [11]; 3000 nM,1.33
same,phenotypic distance,E34 [12]; 4.1 nM,0.505
same,phenotypic distance,E34 [12]; 12.3 nM,0.89
same,phenotypic distance,E34 [12]; 37 nM,0.743
same,phenotypic distance,E34 [12]; 111.1 nM,0.994
same,phenotypic distance,E34 [12]; 333.3 nM,0.472
same,phenotypic distance,E34 [12]; 1000 nM,0.846
same,phenotypic distance,E34 [12]; 3000 nM,0.609
same,phenotypic distance,E57 [13]; 4.1 nM,0.911
same,phenotypic distance,E57 [13]; 12.3 nM,0.621
same,phenotypic distance,E57 [13]; 37 nM,0.561
same,phenotypic distance,E57 [13]; 111.1 nM,0.889
same,phenotypic distance,E57 [13]; 333.3 nM,0.765
same,phenotypic distance,E57 [13]; 1000 nM,0.843
same,phenotypic distance,E57 [13]; 3000 nM,0.439
same,phenotypic distance,FT3469 [14]; 4.1 nM,0.64
same,phenotypic distance,FT3469 [14]; 12.3 nM,1.14
same,phenotypic distance,FT3469 [14]; 37 nM,0.738
same,phenotypic distance,FT3469 [14]; 111.1 nM,1.23
same,phenotypic distance,FT3469 [14]; 333.3 nM,0.567
same,phenotypic distance,FT3469 [14]; 1000 nM,0.796
same,phenotypic distance,FT3469 [14]; 3000 nM,0.874
